Laboratory results from patent US20090028804A1, “AhR mediators” (SYMRISE GmbH & Co. KG, priority 2005, published 2009).
Where two headings read alike, the source gives them in different places.

Tests used:
AhR [1] = target: T1, AhR (Homo sapiens, UniProt P35869); conditions: human breast cancer cell line MCF-7; cited from earlier work
T1 sequence (P35869 11-848): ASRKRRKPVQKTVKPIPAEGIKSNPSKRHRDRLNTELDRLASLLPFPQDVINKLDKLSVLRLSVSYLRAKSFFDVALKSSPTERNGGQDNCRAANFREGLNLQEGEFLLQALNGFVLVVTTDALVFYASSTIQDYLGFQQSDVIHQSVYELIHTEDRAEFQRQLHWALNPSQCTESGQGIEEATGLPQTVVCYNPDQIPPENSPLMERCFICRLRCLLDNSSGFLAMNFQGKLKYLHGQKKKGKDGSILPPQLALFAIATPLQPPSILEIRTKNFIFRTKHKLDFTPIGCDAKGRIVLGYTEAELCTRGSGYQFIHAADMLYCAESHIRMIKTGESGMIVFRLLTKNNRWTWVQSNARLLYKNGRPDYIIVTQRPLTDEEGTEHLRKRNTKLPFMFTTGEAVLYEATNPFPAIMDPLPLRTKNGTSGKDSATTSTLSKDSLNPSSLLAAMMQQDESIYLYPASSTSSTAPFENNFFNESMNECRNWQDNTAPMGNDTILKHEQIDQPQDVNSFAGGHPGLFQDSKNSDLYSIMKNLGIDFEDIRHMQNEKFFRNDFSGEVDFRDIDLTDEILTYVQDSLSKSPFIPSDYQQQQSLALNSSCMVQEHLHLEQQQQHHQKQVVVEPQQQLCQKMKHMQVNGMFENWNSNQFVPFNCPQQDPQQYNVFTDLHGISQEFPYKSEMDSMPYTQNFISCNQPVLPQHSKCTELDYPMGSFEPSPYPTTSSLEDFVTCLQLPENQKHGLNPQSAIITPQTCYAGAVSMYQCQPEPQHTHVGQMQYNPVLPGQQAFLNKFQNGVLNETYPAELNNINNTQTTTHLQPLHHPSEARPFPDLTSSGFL

AhR [2] = target: T1, AhR; conditions: human liver cancer cell line HepG2; cited from earlier work
AhR [3] = target: T1, AhR; parameters: host or cells: oral human keratinocyte cancer cells; conditions: cited from earlier work
MMP-1 = conditions: cited from earlier work
[4] = Photostability on irradiation with UVB radiation; type: physicochemical; conditions: photostable = no more than 10 mol % converted on UVB (40 W/m^2) for 2 hours
Procedure: For the purposes of the present invention, a photostable substance is one which, on irradiation with UVB radiation (40 W/m^2) for 2 hours, is no more than 10 mol % converted into one or more other substances. All-trans-retinoic acid, for example, is accordingly not a preferred AhR antagonist, as this substance is photolabile.

CYP1A1 = test: UVB-induced CYP1A1 induction in HaCaT keratinocytes, real time RT-PCR; type: cell-based, human
Procedure: (§1) HaCaT keratinocytes were cultured in DMEM medium with 10% fetal calf serum. The cells were irradiated with UVB radiation in PBS (phosphate-buffered saline). For UVB irradiation, we used a TL20W/12RS lamp which contains four parallel tubes (Philips, Eindhoven, Netherlands) and emits the majority of its energy in the UVB range (290-320 nm). The emission peak of the lamp is at 310 nm. Control cells were subjected to identical treatment, but were not irradiated. In order to inhibit the AhR, the cells were treated with the test substance 1 h before irradiation.
HaCaT cells were irradiated with 100 J/m^2 of UVB. Some cells were pretreated with the test substance 1 h before irradiation. After 4 h, the RNA was prepared using the RNeasy kit (Qiagen, Hilden, Germany) in accordance with the manufacturer's instructions. Reverse transcription was carried out as described (Arch. Toxicol (2005) PMID 16205913). PCR fragments were amplified by means of real-time PCR in a LightCycler (Roche, Mannheim, Germany). The PCR mix was made up of 1/10 volume of QuantiTec® SYBR Green PCR Master Mixes F (Qiagen, Hilden, Germany), 0.5 μM of the particular primer, 2 μl of cDNA and DEPC-treated (diethyl pyrocarbonate-treated) H2O in a final volume of 20 μl. […] PCR conditions were as follows: 40 cycles of 15 sec 94° C. for denaturation, 25 sec 60° C. for primer attachment, 30 sec 72° C. for extension and 2 sec 72° C. for fluorescence measurement. […] The PCR products were quantified by means of a fragment-specific standard curve and analysis with LightCycler Software 3. […]
HaCaT cells were irradiated with 100 J/m^2 of UVB. […] The PCR mix was made up of 1/10 volume of QuantiTect® SYBR Green PCR Master Mixes (Qiagen, Hilden, Germany), 0.5 μM of the particular primer, 2 μl of cDNA and DEPC-treated (diethyl pyrocarbonate-treated) H2O in a final volume of 20 μl. […] PCR conditions were as follows: 40 cycles of 15 sec 94° C. for denaturation, 25 sec 60° C. for primer attachment, 30 sec 72° C. for extension and 2 sec 72° C. for fluorescence measurement. […]

AhR [5] = target: T1, AhR; test: AhR translocation into the cell nucleus in HaCaT cells transfected with pEGFP-AhR plasmid; type: cell-based; parameters: host or cells: oral human keratinocyte cancer cells
Procedure: as §1
HaCaT cells were plated out onto chambered microscope slides with a cell density of 5×10^4 cells/chamber. Some were pretreated with the test substance for 1 h. After 24 h, said cells were transfected with the pEGFP-AhR plasmid by means of the FuGene 6 transfection reagent (Roche, Mannheim, Germany) in accordance with the manufacturer's instructions After a further 24 h, transfected cells were irradiated with […] of UVB. After 40 min, the cells were fixed for 10 min with 4% paraformaldehyde and washed with PBS. The microscope slides were dried and mounted with Vectashield Mounting Medium (Vector Laboratories, Burlingame, Calif., USA). The AhR coupled to the GFP was visualized by means of a fluorescence microscope (Olympus, Hamburg, Germany) and photographed with a ColorViewXS digital camera (Olympus).

[6] = system: primary mouse melanocytes; test: Melanin content of primary mouse melanocytes, photometric at 405 nm; type: cell-based
Procedure: The cells were removed, lysed with 0.1% Triton-X100, centrifuged and the melanin content from the lysate pellet was determined photometrically in an ELISA reader at 405 nm after cell disruption with 1M NH4OH (4 h, 85° C.). The blank reading, which contained only NH4OH, was subtracted from the absorption value. In parallel, the protein content of the lysate supernatants was determined by the Bradford method.
Semiconfluent primary mouse melanocytes (culture conditions as above) were further cultured for 7 days with 10 μM MNF. The cells were removed, lysed with 0.1% Triton-X100, centrifuged and the melanin content from the lysate pellet was determined photometrically in an ELISA reader at 405 nm after cell disruption with 1M NH4OH (4 h, 85° C.). The blank reading, which contained only NH4OH, was subtracted from the absorption value.

AhR [7] = target: T1, AhR; test: AhR translocation in primary mouse melanocytes transfected with pEGFP-AhR plasmid; type: cell-based; parameters: expressed in transfected cells; host or cells: primary mouse melanocytes; conditions: in the presence and absence of benzo[a]pyrene
Procedure: Primary mouse melanocyte cells were plated out onto chambered microscope slides. Individual chambers were treated for 1 h with the test substances. After 24 h, the cells were transfected with the pEGFP-AhR plasmid. After a further 40 min, the cells were fixed. The microscope slides were evaluated by fluorescence microscopy. Translocation of the AhR, which is coupled to the GFP and thus fluoresces green, from the cytoplasm into the cell nucleus is visible.

AhR [8] = target: T1, AhR; conditions: human breast epithelium cells; cited from earlier work
[9] = in the absence of UVB radiation

O=c1c(O)c(-c2ccc(O)c(O)c2)oc2cc(O)cc(O)c12 [quercetin]
action of AhR (AhR [1]): prevents the action of AhR | action of AhR (AhR [2]): has no effect

CC1=C(/C=C/C(C)=C/C=C/C(C)=C/C(=O)O)C(C)(C)CCC1 [All-trans-retinoic acid]
AhR activity (AhR [3]; in the absence of TCDD): without influencing AhR activity | TCDD-induced AhR activation (AhR [3]; normal human keratinocytes): inhibits TCDD-induced AhR activation | TCDD-induced expression of MMP-1 (MMP-1): enhancing TCDD-induced expression of MMP-1 | photostability [4]: photolabile

C/C=C/c1cc(OC)c2c(c1)C(C)C(c1ccc(O)c(OC)c1)O2 (stereo not drawn) [Compound (X)]
CYP1A1 inhibition in the presence of UVB light (CYP1A1; 0.0001 wt. %, HaCaT, 100 J/m^2 UVB, relative to control (PBS without test substances with 0.1% DMSO, UVB-irradiated)): 20% | induction of CYP1A1 as a result of AhR activation in the presence of UVB light (CYP1A1; HaCaT, UVB light): inhibited induction of CYP1A1 | induction of an AhR-inducible gene, in particular CYP1A1, by the compound itself (CYP1A1; [9]): does not itself bring about induction | translocation of AhR from the cytoplasm into the cell nucleus induced by the compound itself (AhR [5]; [9]): do not induce translocation of AhR

COc1cc(-c2cc(=O)c3ccccc3o2)ccc1[N+](=O)[O-] [3-methoxy-4-nitroflavone]
AhR translocation into the cell nucleus (AhR [5]; HaCaT, in the presence and absence of UVB light): inhibited AhR translocation | melanin content versus untreated cells ([6]; 10 μM, 7 days, p<0.05 (FIG. 4)): significantly less melanin | AhR translocation into the cell nucleus (AhR [7]): inhibited AhR translocation

O=C1c2ccccc2-c2n[nH]c3cccc1c23 [anthra[1,9-cd]pyrazol-6(2H)-one]
action of the AhR agonist TCDD (AhR [8]): capable of inhibiting the action

O=c1cc(-c2ccc(O)c(O)c2)oc2cc(O)cc(O)c12 [luteolin]
action of AhR (AhR [1]): has no effect | action of AhR (AhR [2]): acts as an AhR inhibitor

O=Cc1c2[nH]c3ccccc3c2cc2[nH]c3ccccc3c12 [FICZ, formylindolo(3,2b)carbazole]
melanin content versus untreated cells ([6]; 2 days with UVB-irradiated 50 mM tryptophan solution containing FICZ, p<0.05 (FIG. 3)): significantly more melanin | AhR translocation into the cell nucleus (AhR [7]): stimulated AhR translocation
